We go through 4 compounds from patent US20030114666A1, “Antibacterial agents” (priority 2001, published 2003).

In brackets after ≈: the same amount, converted by molar mass. Structures can show the parent of a compound that is named as a salt. Where two headings read alike, the source gives them in different places. A value given as a limit tells only on which side of the number the result lay.

The test system of data set [1] is S. aureus 2558. The data set can be described thus: Test D cross resistance antibacterial assay (MIC). The data set is classed as cell-based. The following applies: relative to MIC against S. aureus UC-76. The method, then:
(§1) Test D-Cross Resistance Antibacterial Assay
(§2) The compounds of the present invention were tested against an assortment of ciprofloxacin resistant E. coli and S. aureus organisms described below using standard microtitration techniques (Cohen, et al., Antimicrob. Agents Chemother., 1985;28:766; Heifetz, et al., Antimicrob. Agents Chemother., 1974;6:124). […].
S. aureus 2558: Isogenic to S. aureus 2554, with point mutation at position 84 of gyrA subunit.

Data set [2] relates to N. gonorrhoeae 2709. The data set can be described thus: Test D cross resistance antibacterial assay (MIC). The data set is classed as cell-based, Neisseria gonorrhoeae. The following applies: for MIC: Neisseria gonorrhoeae, 2709, read-out: Minimum Inhibitory Concentrations N. g. 2709; for MIC fold increase N. g. 2709 (in parentheses): relative to MIC against N. g. 2637. The method, then: as §1, §2
N. gonorrhoeae 2709 (N.g. 2709): Isogenic to N. gonorrhoeae 2637 contains gyrA quinolone-resistant determining region (QRDR) mutations (S91F D95G).

Data set [3] concerns S. aureus UC-76. The data set can be described thus: Test D cross resistance antibacterial assay (MIC). The data set is classed as cell-based. The following applies: Staphylococcus aureus, UC76; wild type sensitive laboratory strain; read-out: Minimum Inhibitory Concentrations S. aureus UC-76. The method, then:
as §1, §2
S. aureus UC-76: Typical sensitive laboratory strain (Wild type).

Data set [4] relates to E. coli B90. Put plainly: Test A antibacterial assay, standard microtitration (MIC). The data set is classed as cell-based. The following applies: Escherichia coli. The method, then:
(§3) Test A-Antibacterial Assay
(§4) The compounds of the present invention were tested against an assortment of Gram-negative and Gram-positive organisms using standard microtitration techniques (Cohen, et al., Antimicrob. Agents Chemother., 1985;28:766; Heifetz, et al., Antimicrob. Agents Chemother:, 1974;6:124). […]

The test system of data set [5] is E. faecalis RB1. The data set is described as above. The format is cell-based. The following applies: Enterococcus faecalis. How it is done:
as §3, §4

Data set [6] has as its system E. coli Tol C. The description is as above. The data set is classed as cell-based. The following applies: Escherichia coli, read-out: Minimum Inhibitory Concentrations E. coli Tol C. The method, then:
as §3, §4

The subject of data set [7] is E. coli MC 4100. The data set is described as above. The data set is classed as cell-based. The following applies: Escherichia coli. The method, then:
as §3, §4

Data set [8] relates to S. pyogenes C203. The description is as above. The data set is classed as cell-based. The following applies: Streptococcus pyogenes. The method, then:
as §3, §4

Data set [9] has as its system S. aureus 29213. The description is as above. The format is cell-based. The method, then:
as §3, §4

For data set [10], the system named is N. gonorrhoeae 2637. Put plainly: Test D cross resistance antibacterial assay (MIC). The data set is classed as cell-based, Neisseria gonorrhoeae. The following applies: Neisseria gonorrhoeae, 2637; parent strain, derivative of MS11; read-out: Minimum Inhibitory Concentrations N. g. 2637. The method, then:
as §1, §2
N. gonorrhoeae 2637 (N.g. 2637) is a derivative of Neisseria gonorrhoeae MS11 containing a TAC-LAC recA to allow for control of homologous recombination [Tonjum T. et al. Molecular Microbiology 1995, 16, 451-64].

Data set [11] has as its system S. aureus 2552. The data set can be described thus: Test D cross resistance antibacterial assay (MIC). The following applies: for MIC: Staphylococcus aureus, 2552, upregulated norA pump, read-out: Minimum Inhibitory Concentrations S. aureus 2552; for MIC fold increase S. aureus 2552 (in parentheses): relative to MIC against S. aureus UC-76. The format is cell-based. How it is done:
as §1, §2

Data set [12] concerns N. gonorrhoeae 2693. The data set can be described thus: Test D cross resistance antibacterial assay (MIC). The format is cell-based, Neisseria gonorrhoeae. The following applies: relative to MIC against N. g. 2637. How it is done:
as §1, §2
N. gonorrhoeae 2693 (N.g. 2693): Isogenic to N. gonorrhoeae 2709 containing parC QRDR mutations [P88S and E91K].

The subject of data set [13] is S. aureus 2554. The data set can be described thus: Test D cross resistance antibacterial assay (MIC). The data set is classed as cell-based. The following applies: relative to MIC against S. aureus UC-76. The method, then:
as §1, §2
S. aureus 2554: Isogenic to S. aureus 2552, with point mutation at position 80 of grlA subunit.

Data set [14] deals with S. pyogenes. Put plainly: Test C in vivo activity, median protective dose in mice given lethal systemic infections. The following applies: PO, lethal systemic infection with S. pyogenes.
In data set [15] the target is E. coli gyrase (Escherichia coli, UniProt P0AES4+P0AES6). Put plainly: biochemical. The following applies: supercoiling of relaxed pBR322, 30 minutes at 37° C.
Where [16] appears, read: Gram negative, E. coli B90, read-out: Minimum Inhibitory Concentrations E. coli B90.
Where [17] appears, read: Gram positive, E. faecalis RB1, read-out: Minimum Inhibitory Concentrations E. faecalis RB1.
The mark [18] stands for this setting: MC4100, Gram negative, E. coli MC 4100, read-out: Minimum Inhibitory Concentrations E. coli MC 4100.
Setting [19] is: Gram positive, S. pyogenes C203, read-out: Minimum Inhibitory Concentrations S. pyogenes C203.
Where [20] appears, read: Staphylococcus aureus, Gram positive, S. aureus 29213, read-out: Minimum Inhibitory Concentrations S. aureus 29213.

Chain of E. coli gyrase (P0AES4 whole entry, one chain of several): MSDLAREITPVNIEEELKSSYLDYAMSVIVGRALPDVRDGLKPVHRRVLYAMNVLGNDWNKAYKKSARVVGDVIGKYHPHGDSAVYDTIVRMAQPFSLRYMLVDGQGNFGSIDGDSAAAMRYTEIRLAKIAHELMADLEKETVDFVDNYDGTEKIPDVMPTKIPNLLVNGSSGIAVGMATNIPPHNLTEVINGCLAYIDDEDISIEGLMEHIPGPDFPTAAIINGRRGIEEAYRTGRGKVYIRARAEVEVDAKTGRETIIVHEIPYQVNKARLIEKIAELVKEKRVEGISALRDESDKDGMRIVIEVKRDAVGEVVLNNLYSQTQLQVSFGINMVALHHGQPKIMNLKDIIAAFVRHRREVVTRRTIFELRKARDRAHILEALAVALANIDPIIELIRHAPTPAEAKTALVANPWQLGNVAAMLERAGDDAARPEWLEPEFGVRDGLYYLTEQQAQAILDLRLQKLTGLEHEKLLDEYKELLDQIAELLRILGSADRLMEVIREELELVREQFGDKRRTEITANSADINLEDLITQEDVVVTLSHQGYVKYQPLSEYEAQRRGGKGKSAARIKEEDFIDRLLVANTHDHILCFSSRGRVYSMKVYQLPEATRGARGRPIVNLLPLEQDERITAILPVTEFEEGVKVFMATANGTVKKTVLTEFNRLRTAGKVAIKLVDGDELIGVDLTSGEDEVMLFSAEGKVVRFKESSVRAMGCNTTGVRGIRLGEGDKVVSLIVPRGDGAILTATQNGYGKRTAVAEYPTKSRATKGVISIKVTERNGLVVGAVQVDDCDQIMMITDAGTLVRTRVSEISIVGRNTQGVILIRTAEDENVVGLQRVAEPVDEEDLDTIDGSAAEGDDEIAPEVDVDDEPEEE

For the compound `O=C(O)c1cn(C2CC2)c2cc(N3CCNCC3)c(F)cc2c1=O` [Ciprofloxacin, ciprofloxacin, reference compound], the “MIC fold increase S. aureus 2558 (in parentheses)” value in data set [1] is recorded as “(123x)”. For the same compound, the MIC in [2] is 0.06 µg/mL (≈ 0.181 µM); in [3] it was 0.13 µg/mL (≈ 0.392 µM); in [4] (setting [16]) it was less than 0.01 µg/mL; in [5] (setting [17]), 0.5 µg/mL (≈ 1.51 µM); in data set [6], less than 0.01 µg/mL; in data set [7] (setting [18]) it was less than 0.02 µg/mL. The MIC in data set [8] (setting [19]) came out at 0.5 µg/mL (≈ 1.51 µM); in [9] (setting [20]), 0.5 µg/mL (≈ 1.51 µM); in data set [10], 0.002 µg/mL; in data set [11], 2 µg/mL (≈ 6.04 µM). For the same compound, the “MIC fold increase N. g. 2709 (in parentheses)” value in data set [2] is given as “(30x)”. Further, the “MIC fold increase S. aureus 2552 (in parentheses)” value in data set [11] is recorded as “(15x)”. In addition, in data set [12], the “MIC fold increase N. g. 2693 (in parentheses)” value is reported as “(1000x)”. In addition, the “MIC fold increase S. aureus 2554 (in parentheses)” value in [13] is “(15x)”. Besides, the PD50 in data set [14] is more than 100.0 mg/kg.
As a reminder, the IC50 is the midpoint of a concentration-inhibition curve. A lower IC50 goes with higher potency. Regarding `Cc1c(N2CC[C@@H]([C@H](C)N)C2)c(F)cc2c(=O)[nH]c(=O)n(C3CC3)c12` [Example 4b, 7-[(R)-3-((S)-1-Aminoethyl)pyrrolidin-1-yl]-1-cyclopropyl-6-fluoro-8-methyl-1H-quinazolinedione Hydrochloride], the “MIC fold increase S. aureus 2558 (in parentheses)” value in [1] was “(8x)”. Also, the MIC in data set [2] turned out to be 2 µg/mL; in [3], 0.13 µg/mL; in data set [4] (B90, read-out: Minimum Inhibitory Concentrations E. coli B90) it was 0.13 µg/mL; in data set [5] (RB1, read-out: Minimum Inhibitory Concentrations E. faecalis RB1), 0.13 µg/mL; in data set [6], 0.13 µg/mL; in data set [7] (MC4100, read-out: Minimum Inhibitory Concentrations E. coli MC 4100) it was 4 µg/mL. Further, the MIC turned out to be 0.015 µg/mL in data set [8] (C203, read-out: Minimum Inhibitory Concentrations S. pyogenes C203); 0.25 µg/mL in data set [9] (Staphylococcus aureus, 29213, read-out: Minimum Inhibitory Concentrations S. aureus 29213); 0.25 µg/mL in data set [10]; 0.5 µg/mL in [11]. Moreover, the “MIC fold increase N. g. 2709 (in parentheses)” value in [2] was “(8x)”. Further, the “MIC fold increase S. aureus 2552 (in parentheses)” value in data set [11] is “(4x)”. The “MIC fold increase N. g. 2693 (in parentheses)” value in [12] is given as “(8x)”. For the same compound, the “MIC fold increase S. aureus 2554 (in parentheses)” value in data set [13] is reported as “(2x)”. The same compound gave a PD50 in [14] of 3.6 mg/kg. The compound also gave an IC50 in data set [15] of 600 nM.
As for `CN[C@@H](C)[C@@H]1CCN(c2c(F)cc3c(=O)[nH]c(=O)n(C4CC4)c3c2C)C1` [Example 2, 1-Cyclopropyl-6-fluoro-8-methyl-7-[(R)-3-((S)-1-methylaminoethyl)pyrrolidin-1-yl]-1H-quinazolinedione], in data set [1], the “MIC fold increase S. aureus 2558 (in parentheses)” value is recorded as “(4x)”. Besides, the MIC turned out to be 4 µg/mL (≈ 11.1 µM) in [2]; 0.25 µg/mL (≈ 0.694 µM) in data set [3]; 0.5 µg/mL (≈ 1.39 µM) in [4] (setting [16]); 0.25 µg/mL (≈ 0.694 µM) in data set [5] (setting [17]); 0.25 µg/mL (≈ 0.694 µM) in data set [6]; 8 µg/mL (≈ 22.2 µM) in [7] (setting [18]). For the same compound, the MIC came to 0.03 µg/mL (≈ 0.0832 µM) in data set [8] (setting [19]), 0.5 µg/mL (≈ 1.39 µM) in data set [9] (setting [20]), 0.5 µg/mL in [10] and 0.5 µg/mL (≈ 1.39 µM) in data set [11]. Besides, the “MIC fold increase N. g. 2709 (in parentheses)” value in [2] was “(8x)”. For the same compound, the “MIC fold increase S. aureus 2552 (in parentheses)” value in [11] is “(2x)”. Also, the “MIC fold increase N. g. 2693 (in parentheses)” value in data set [12] was “(16x)”. Also, the “MIC fold increase S. aureus 2554 (in parentheses)” value in data set [13] is listed as “(2x)”. This compound also had a PD50 in data set [14] of 10.8 mg/kg. For the same compound, the midpoint of inhibition in [15], the IC50, lay at 2100 nM.
What is called melting point is the temperature, or range, at which the solid turns liquid. For `CN[C@@H](C)[C@@H]1CCN(c2c(F)cc3c(=O)[nH]c(=O)n(C4CC4)c3c2OC)C1` [Example 3, 1-Cyclopropyl-6-fluoro-8-methoxy-7-[(R)-3-((S)-1-methylaminoethyl)pyrrolidin-1-yl]-1H-quinazolinedione], the melting point is 162 to 164 °C. Moreover, the MIC in data set [4] (setting [16]) was determined as 2 µg/mL (≈ 5.31 µM). For the same compound, the MIC in data set [5] (setting [17]) was 2 µg/mL (≈ 5.31 µM). In data set [6], the MIC was determined as 0.5 µg/mL (≈ 1.33 µM). In [7] (setting [18]), the MIC was 32 µg/mL (≈ 85 µM). In addition, the MIC in data set [8] (setting [19]) was 0.13 µg/mL (≈ 0.345 µM). It took 7000 nM to reach half-maximal inhibition in data set [15] (IC50).
